Key:
HDAC1 = biological target: T1, HDAC1 (Homo sapiens, UniProt Q13547); experiment: Fluorescence-based HDAC inhibition assay, HDAC1; assay type: biochemical
T1 construct: made in house; host or cells: HEK293/T17 cells, transient transfection
Description: (§1) Briefly, transiently transfected cells were harvested three days post-transfection and the cell pellets resuspended in a lysis buffer (50 mM Tris, 150 mM NaCl, 10 mM KCl, 2 mM MgCl2, 10% glycerol, 0.2% NP-40, 2 Units/mL benzonase, pH 8) supplemented with a cocktail of protease inhibitors (Roche, Basel, Switzerland). Cells were lysed by sonication (30 W; 3×20 s) on ice, and the cell lysate cleared by centrifugation at 40 000×g for 30 min at 4° C. […] Purified proteins were concentrated to 1 mg/mL, aliquoted, flash-frozen in liquid nitrogen, and stored at −80° C. until further use.
(§2) Briefly, individual HDACs were preincubated with dilution series of tested inhibitors (0-100 μM) in a 384-well plate in the total volume of 40 μL for 10 min at 37° C. in a reaction buffer comprising 50 mM HEPES, 140 mM NaCl, 10 mM KCl, 1 mM TCEP, 0.1% BSA, pH 7.4. Deacetylation reaction was started by the addition of 10 μL of a 10 μM substrate into the HDAC/inhibitor mixture. Following the 30 min incubation at 37° C., the reaction was terminated by the addition of 25 μL of the trypsin solution (4 mg/mL). Fluorescence development by trypsin was carried out at 37° C. for 15 and 60 min for Ac-GAK(Ac)-AMC and Boc-Lys(TFA)-AMC substrate, respectively. […] Non-linear regression analysis was employed to calculate IC50 values using the GraphPad Prism software. […] Reactions without the enzyme or the inhibitor were used to define 0% and 100% of the HDAC activity, respectively.

plasma protein = experiment: Protein binding in human plasma; settings: plasma protein-bound fraction, mean with standard error
[1] = Stability in simulated gastric fluid (SGF)
[2] = mean with standard error
HDAC3 = biological target: T2, HDAC3 (Homo sapiens, UniProt O15379); experiment: Fluorescence-based HDAC inhibition assay, HDAC3; assay type: biochemical; settings: for IC50: 10 μM Ac-GAK(Ac)-AMC substrate, mean of two experiments ± SEM
T2 construct: made in house; host or cells: HEK293/T17 cells, transient transfection
T2 sequence (O15379 whole entry): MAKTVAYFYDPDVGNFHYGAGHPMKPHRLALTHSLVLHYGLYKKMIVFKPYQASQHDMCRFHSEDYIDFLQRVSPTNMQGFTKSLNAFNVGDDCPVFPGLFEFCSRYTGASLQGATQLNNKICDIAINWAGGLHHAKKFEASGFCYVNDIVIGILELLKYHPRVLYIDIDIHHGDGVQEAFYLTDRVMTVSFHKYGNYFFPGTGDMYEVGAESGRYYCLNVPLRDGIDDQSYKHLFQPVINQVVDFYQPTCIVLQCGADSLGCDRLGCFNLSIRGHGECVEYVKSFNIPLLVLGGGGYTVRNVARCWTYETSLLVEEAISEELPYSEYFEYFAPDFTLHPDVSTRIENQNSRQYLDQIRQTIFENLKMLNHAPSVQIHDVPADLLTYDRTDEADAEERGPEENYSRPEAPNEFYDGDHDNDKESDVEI
T2 sequence (Q9Y618 389-480 partner limits assumed): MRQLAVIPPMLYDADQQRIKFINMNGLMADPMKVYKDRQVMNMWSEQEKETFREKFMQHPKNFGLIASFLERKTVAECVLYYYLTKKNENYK
Description: as §1, §2

HDAC5 = biological target: T3, HDAC5 (Homo sapiens, UniProt Q9UQL6); experiment: Fluorescence-based HDAC inhibition assay, HDAC5; assay type: biochemical; settings: for IC50: 10 μM Boc-Lys(TFA)-AMC substrate, mean of two experiments ± SEM
T3 construct: made in house; host or cells: HEK293/T17 cells, transient transfection
T3 sequence (Q9UQL6 whole entry): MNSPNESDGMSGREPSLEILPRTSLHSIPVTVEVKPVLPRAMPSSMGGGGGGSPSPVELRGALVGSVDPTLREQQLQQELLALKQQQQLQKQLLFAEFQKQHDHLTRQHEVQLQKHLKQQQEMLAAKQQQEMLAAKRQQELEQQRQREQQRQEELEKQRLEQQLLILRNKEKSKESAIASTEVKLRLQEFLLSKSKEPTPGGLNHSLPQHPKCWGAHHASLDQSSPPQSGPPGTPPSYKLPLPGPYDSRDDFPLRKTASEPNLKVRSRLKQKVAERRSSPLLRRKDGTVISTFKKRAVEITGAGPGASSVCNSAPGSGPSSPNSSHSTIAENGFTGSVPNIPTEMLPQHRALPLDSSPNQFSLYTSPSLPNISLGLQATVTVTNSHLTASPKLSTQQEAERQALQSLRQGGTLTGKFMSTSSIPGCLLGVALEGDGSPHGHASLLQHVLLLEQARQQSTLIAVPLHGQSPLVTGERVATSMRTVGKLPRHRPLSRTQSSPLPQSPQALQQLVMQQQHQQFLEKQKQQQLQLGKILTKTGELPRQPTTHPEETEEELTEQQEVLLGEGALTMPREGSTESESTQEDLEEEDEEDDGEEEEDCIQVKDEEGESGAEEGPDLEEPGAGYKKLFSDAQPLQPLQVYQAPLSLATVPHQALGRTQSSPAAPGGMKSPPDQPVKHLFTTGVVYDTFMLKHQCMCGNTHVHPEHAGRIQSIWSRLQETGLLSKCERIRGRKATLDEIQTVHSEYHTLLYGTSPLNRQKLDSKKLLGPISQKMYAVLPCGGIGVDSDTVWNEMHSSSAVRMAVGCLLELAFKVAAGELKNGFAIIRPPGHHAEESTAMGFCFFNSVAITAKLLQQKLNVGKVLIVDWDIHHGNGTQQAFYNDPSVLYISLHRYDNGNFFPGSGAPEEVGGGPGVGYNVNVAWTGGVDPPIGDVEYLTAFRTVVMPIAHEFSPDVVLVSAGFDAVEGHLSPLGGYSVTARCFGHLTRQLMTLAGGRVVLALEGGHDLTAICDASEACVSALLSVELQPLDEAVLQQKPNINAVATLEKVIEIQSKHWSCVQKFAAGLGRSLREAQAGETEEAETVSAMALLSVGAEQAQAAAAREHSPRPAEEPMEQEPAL
Description: as §1, §2

HDAC9 = biological target: T4, HDAC9 (Homo sapiens, UniProt Q9UKV0); experiment: Fluorescence-based HDAC inhibition assay, HDAC9; assay type: biochemical; settings: for IC50: 10 μM Boc-Lys(TFA)-AMC substrate, mean of two experiments ± SEM
T4 construct: made in house; host or cells: HEK293/T17 cells, transient transfection
T4 sequence (Q9UKV0 whole entry): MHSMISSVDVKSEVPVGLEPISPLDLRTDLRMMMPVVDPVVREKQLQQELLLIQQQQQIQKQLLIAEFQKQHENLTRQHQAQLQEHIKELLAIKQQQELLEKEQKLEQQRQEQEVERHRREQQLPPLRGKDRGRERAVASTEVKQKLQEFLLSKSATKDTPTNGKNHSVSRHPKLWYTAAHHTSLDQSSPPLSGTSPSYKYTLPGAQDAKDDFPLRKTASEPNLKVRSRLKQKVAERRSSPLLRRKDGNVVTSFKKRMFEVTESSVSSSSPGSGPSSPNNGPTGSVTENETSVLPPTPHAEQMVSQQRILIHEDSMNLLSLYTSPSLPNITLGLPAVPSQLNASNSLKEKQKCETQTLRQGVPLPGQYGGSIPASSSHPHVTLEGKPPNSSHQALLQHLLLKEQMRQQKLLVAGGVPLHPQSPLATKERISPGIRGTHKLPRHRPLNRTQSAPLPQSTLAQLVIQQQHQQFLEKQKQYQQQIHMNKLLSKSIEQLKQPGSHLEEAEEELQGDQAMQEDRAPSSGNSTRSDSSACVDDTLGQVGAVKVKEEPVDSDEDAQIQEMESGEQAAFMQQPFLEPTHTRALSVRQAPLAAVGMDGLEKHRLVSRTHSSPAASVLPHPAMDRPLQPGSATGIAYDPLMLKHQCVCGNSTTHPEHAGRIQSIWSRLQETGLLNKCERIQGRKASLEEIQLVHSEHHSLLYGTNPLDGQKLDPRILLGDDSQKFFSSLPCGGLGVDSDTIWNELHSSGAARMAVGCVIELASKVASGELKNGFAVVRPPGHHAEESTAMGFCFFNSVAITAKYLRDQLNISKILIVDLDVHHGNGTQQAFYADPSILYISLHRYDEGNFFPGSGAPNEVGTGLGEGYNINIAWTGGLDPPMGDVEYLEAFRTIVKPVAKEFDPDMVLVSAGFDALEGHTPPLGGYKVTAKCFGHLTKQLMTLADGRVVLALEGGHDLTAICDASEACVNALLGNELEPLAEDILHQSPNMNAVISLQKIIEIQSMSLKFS
Description: as §1, §2

HDAC6 = biological target: T5, HDAC6 (Homo sapiens, UniProt Q9UBN7); experiment: Fluorescence-based HDAC inhibition assay, HDAC6; assay type: biochemical; settings: for LE (ligand efficiency): 1.4 × pIC50/number of heavy atoms; for selectivity over Class IIa isoforms HDAC4, 5, 7, and 9: HDAC6 vs HDAC4, 5, 7 and 9; for LipE (lipophilic ligand efficiency): pIC50 − clog Po/w
T5 construct: our assay that uses approximately 0.6 nM concentration of the full-length enzyme; made in house; host or cells: HEK293/T17 cells, transient transfection
T5 sequence (Q9UBN7 1-1215): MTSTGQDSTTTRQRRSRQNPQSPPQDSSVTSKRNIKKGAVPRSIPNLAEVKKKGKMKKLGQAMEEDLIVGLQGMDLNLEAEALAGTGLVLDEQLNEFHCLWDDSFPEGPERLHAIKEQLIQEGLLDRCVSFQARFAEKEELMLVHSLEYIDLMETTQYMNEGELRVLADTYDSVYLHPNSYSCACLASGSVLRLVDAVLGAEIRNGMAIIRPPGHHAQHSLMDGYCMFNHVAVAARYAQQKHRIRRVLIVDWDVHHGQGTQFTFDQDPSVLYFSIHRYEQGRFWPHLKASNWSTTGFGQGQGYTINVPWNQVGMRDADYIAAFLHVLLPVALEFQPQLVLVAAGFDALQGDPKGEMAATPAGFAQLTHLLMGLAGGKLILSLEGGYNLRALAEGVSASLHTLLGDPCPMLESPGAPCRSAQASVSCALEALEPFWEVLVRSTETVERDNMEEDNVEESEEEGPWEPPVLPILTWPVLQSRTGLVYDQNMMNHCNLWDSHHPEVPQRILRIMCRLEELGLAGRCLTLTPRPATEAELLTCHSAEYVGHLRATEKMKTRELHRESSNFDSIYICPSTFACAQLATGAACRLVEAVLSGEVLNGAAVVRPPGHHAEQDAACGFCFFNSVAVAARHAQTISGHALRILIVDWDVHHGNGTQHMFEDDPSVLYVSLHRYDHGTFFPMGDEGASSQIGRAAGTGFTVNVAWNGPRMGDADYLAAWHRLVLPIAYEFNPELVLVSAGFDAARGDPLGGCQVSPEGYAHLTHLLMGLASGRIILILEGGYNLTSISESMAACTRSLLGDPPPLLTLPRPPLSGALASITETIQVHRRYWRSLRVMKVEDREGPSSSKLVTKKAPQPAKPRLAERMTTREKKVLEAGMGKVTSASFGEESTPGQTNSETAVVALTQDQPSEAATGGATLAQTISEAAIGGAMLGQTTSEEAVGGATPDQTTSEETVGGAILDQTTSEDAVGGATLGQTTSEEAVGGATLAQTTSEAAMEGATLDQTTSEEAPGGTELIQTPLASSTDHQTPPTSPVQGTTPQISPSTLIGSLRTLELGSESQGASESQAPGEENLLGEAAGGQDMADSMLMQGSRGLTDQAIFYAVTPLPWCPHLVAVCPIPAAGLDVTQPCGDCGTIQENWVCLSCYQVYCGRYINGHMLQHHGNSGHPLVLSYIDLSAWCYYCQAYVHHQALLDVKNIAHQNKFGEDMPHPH
Description: as §1, §2

HDAC2 = biological target: T6, HDAC2 (Homo sapiens, UniProt Q92769); experiment: Fluorescence-based HDAC inhibition assay, HDAC2; assay type: biochemical; settings: for IC50: 10 μM Ac-GAK(Ac)-AMC substrate, mean of two experiments ± SEM
T6 construct: made in house; host or cells: HEK293/T17 cells, transient transfection
T6 sequence (Q92769 whole entry): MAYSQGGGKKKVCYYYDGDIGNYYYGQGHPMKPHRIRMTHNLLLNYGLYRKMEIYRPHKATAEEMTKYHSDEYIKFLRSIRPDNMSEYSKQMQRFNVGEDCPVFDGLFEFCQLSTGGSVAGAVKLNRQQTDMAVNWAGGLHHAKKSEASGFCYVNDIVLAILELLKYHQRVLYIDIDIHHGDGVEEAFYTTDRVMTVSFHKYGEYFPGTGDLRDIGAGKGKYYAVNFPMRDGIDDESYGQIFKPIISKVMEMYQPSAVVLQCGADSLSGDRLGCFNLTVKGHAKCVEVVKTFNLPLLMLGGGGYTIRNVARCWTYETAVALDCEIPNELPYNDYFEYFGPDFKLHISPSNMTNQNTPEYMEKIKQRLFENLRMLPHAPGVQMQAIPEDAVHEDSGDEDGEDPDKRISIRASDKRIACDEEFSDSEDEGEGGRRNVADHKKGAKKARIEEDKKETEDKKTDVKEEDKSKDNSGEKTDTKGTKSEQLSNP
Description: as §1, §2

[3] = 10 μM Ac-GAK(Ac)-AMC substrate, mean of two experiments ± SEM

T1 sequence (Q13547 whole entry): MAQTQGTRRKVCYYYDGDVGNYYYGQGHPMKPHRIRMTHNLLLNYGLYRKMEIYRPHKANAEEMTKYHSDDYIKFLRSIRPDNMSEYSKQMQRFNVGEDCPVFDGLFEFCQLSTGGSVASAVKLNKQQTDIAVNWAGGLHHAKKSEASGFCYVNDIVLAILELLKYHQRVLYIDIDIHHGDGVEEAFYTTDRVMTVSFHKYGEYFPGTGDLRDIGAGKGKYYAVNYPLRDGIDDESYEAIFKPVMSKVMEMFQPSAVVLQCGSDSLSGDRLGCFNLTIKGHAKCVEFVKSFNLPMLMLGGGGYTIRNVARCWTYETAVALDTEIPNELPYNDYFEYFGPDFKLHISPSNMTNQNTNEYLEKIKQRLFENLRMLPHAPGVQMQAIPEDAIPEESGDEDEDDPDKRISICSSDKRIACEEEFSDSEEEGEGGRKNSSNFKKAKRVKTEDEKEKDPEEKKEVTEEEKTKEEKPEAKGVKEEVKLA

Row | SMILES | SI (HDAC6 selectivity index over HDAC1) (HDAC1) | IC50 (HDAC1; [3]) | Human plasma binding (%) (plasma protein) | Human plasma stability (t1/2, h) (Human plasma stability) | SGF stability (t1/2, h) [1] | Rat liver microsomes (t1/2, min) [2] | SI (HDAC6 selectivity index over HDAC3) (HDAC3) | IC50 (HDAC3) | SI (HDAC6 selectivity index over HDAC5) (HDAC5) | IC50 (HDAC5) | SI (HDAC6 selectivity index over HDAC9) (HDAC9) | IC50 (HDAC9) | SI (HDAC6 selectivity index), HDAC6 (HDAC6) | IC50 (HDAC6; [3]) | LE (ligand efficiency) (HDAC6) | selectivity over Class IIa isoforms HDAC4, 5, 7, and 9 (HDAC6) | LipE (lipophilic ligand efficiency) (HDAC6) | SI (HDAC6 selectivity index over HDAC2) (HDAC2) | IC50 (HDAC2) | also measured
1 | NCc1ccc(NC(=O)N(CCCCO)Cc2ccc(C(=O)NO)cc2)cc1 [Compound 6a, 4-((3-(4-(Aminomethyl)phenyl)-1-(4-hydroxybutyl)ureido)methyl)-N-hydroxybenz-amide] | 293 | 117 ± 10 nM | 1.9% | >5 h | >5 h | 177 min | 880 | 352 ± 2 nM | 8,550 | 3420 nM | 15,700 | 6270 nM | 1 | 0.4 nM | 0.47 | thousand-fold selectivity | 7.57 | 440 | 176 ± 21 nM | IC50 (HDAC1; Table 2): 117 ± 10 nM; HDAC1/6 (HDAC1; ratio HDAC1 IC50 / HDAC6 IC50, Table 2): 293; Human plasma binding (%) (plasma protein; listed as Suprastat): 1.9%; IC50 (HDAC6; Table 2): 0.4 nM
2 | CCCCN(Cc1ccc(C(=O)NO)cc1)C(=O)Nc1ccc(CN)cc1 [Compound 6b, 4-((3-(4-(Aminomethyl)phenyl)-1-butylureido)methyl)-N-hydroxybenzamide] | 89 | 80 ± 45 nM | approximately 50% | >5 h | >5 h | 173 min | 492 | 443 ± 108 nM | 11,200 | 10100 nM | 19,200 | 17300 nM | 1 | 0.9 ± 0.7 nM | 0.47 |  | 6.59 | 312 | 281 ± 28 nM | 
3 | O=C(NO)c1ccc(CN(CCCCO)C(=O)Nc2ccccc2)cc1 [Compound 6c, reference compound] | 296 | 148 ± 9 nM | approximately 50% | >5 h | >5 h | 198 min |  | 581 ± 18 nM |  | 9130 nM | 59,50 | 29700 nM | 1 | 0.5 nM | 0.50 | thousand-fold selectivity | 6.98 | 536 | 268 ± 16 nM | 

Source: patent US20230250054A1, “SELECTIVE HISTONE DEACETYLASE 6 INHIBITORS” (The Board of Trustees of the University of Illinois, priority 2020, published 2023)
